Experiments:
[1] = Acute toxicity, LD50 by the Weil method, e.p. administration in mouse; settings: in vivo, ip, Weil method N = 4, K = 4
From the text: LD50 of the compounds of general formula (I) assessed with the Weil method ("Tables for convenient calculation of median effective dose (LD50 or ED50) and instructions in their use", Biometrics, 249-253, 1952), by e.p. administration in mouse is shown in Table 1.
LD50 and fiducial limits, mg/Kg e.p., of the compounds of for-
mula (I). Weil method N = 4, K = 4.

[2] = system: bronchial secretion; experiment: Expectorant activity: bronchial secretion in anesthetized rabbits (method of Perry et al.); assay type: in vivo; settings: oral, rabbit, 20 to 40 mg
Description: The tests were carried out on male rabbits, weighing 2-3 Kg, anesthetized with ethyl urethane, by following the method disclosed by Perry et al. (J. Pharm. Exp. Ther. 73, 65, 1941).
Each cannula was connected to a feeding device which delivered a steady flow-rate of pre-heated air (36°-38° C.) at constant humidity (80%). At the lower end of each cannula, a graduated cylinder was fitted, wherein the bronchial secretion was collected. All of the animals breathed spontaneously and consequently they self-regulated the air intake suitable for normal respiration. After an hour following cannula insertion, the animals were administered oraly (by stomach tube) the compounds of general formula (I) dissolved in distilled water at doses comprised between 20 and 40 mg. […] The control animals (8) were given water only. The amount of secretion was determined after 1, 2 and 4 hours from administration.

[3] = Mucolytic activity in vitro: modification of human sputum density by thromboelastograph (method of Morandini et al.)
Description: The tests were carried out in vitro by using the method disclosed by Morandini et al. (Lotta contro la tubercolosi 47, n. 4, 1977). A thromboelastograph was used to follow the variations induced by the compounds of general formula (I) and acetylcysteine on the rheological properties of human sputum.

## CC(=O)SC(C)CC(=O)OC(CC(=O)O)C[N+](C)(C)C (centres unmarked) [ST-406, 3-thioacetyl butyryl carnitine]
[1]
  LD50: 97 mg/kg
[2]; 1 hour after administration
  Percentage variations ± s.e. of bronchial secretion versus basal values: +1.4 ± 0.05 Percentage
[2]; 2 hours after administration
  Percentage variations ± s.e. of bronchial secretion versus basal values: +1.9 ± 0.05 Percentage
[2]; 4 hours after administration
  Percentage variations ± s.e. of bronchial secretion versus basal values: +3.4 ± 0.04 Percentage

## CC(=O)N[C@@H](CS)C(=O)O [Acetylcysteine, acetylcysteine]
[3]; after addition of 1 ml of a 10% solution at dilution 1/30
  Percentage drop of the tracing versus maximum peak (mucolytic activity index): 84 Percentage
[3]; after addition of 1 ml of a 10% solution at dilution 1/60
  Percentage drop of the tracing versus maximum peak (mucolytic activity index): 55 Percentage

## CC(=O)SCCC(=O)OC(CC(=O)O)C[N+](C)(C)C (centres unmarked) [ST-405, 3-thioacetyl propionyl-carnitine]
[1]
  LD50: 378 mg/kg
[2]; 1 hour after administration
  Percentage variations ± s.e. of bronchial secretion versus basal values: +1.1 ± 0.03 Percentage
[2]; 2 hours after administration
  Percentage variations ± s.e. of bronchial secretion versus basal values: +1.9 ± 0.04 Percentage
[2]; 4 hours after administration
  Percentage variations ± s.e. of bronchial secretion versus basal values: +3.6 ± 0.05 Percentage

## CC(=O)SCCCCC(=O)OC(CC(=O)O)C[N+](C)(C)C (centres unmarked) [ST-412, 5-thioacetyl pentanoyl-carnitine]
[1]
  LD50: 1540 mg/kg
[2]; 1 hour after administration
  Percentage variations ± s.e. of bronchial secretion versus basal values: +1.3 ± 0.04 Percentage
[2]; 2 hours after administration
  Percentage variations ± s.e. of bronchial secretion versus basal values: +2.1 ± 0.05 Percentage
[2]; 4 hours after administration
  Percentage variations ± s.e. of bronchial secretion versus basal values: +3.1 ± 0.03 Percentage
